Test results from article PMC12090182, “Repurposing of the RIPK1-Selective Benzo[1,4]oxazepin-4-one Scaffold for the Development of a Type III LIMK1/2 Inhibitor” (ACS Chemical Biology, 2025).

Legend:
Assay in all cases: scanMAX KINOMEscan (Eurofins)
Format in all cases: binding
CDK8 = CDK8 (Homo sapiens, UniProt P49336); settings: 1000 nM, read-out: Percent Control
From the text: (§1) Supplement cb5c00097_si_002.xlsx, sheet "Table S6 (Eurofins Selectivity)" | column: Percent Control

[1] = target: RSK3(Kin.Dom.2-C-terminal) (Homo sapiens, UniProt Q15349); settings: compound concentration 100 nM; Entrez RPS6KA2; read-out: Percent Control
Sequence of RSK3(Kin.Dom.2-C-terminal) (Q15349 415-672): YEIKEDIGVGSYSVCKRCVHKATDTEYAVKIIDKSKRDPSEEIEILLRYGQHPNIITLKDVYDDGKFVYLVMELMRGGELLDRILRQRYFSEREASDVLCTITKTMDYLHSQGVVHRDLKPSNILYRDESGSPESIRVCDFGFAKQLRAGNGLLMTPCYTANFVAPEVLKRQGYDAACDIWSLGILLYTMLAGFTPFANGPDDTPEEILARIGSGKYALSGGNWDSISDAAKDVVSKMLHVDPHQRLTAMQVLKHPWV
From the text: as §1

MAPKAPK2 = MAPKAPK2 (Homo sapiens, UniProt P49137); settings: 1000 nM, read-out: Percent Control
Sequence of MAPKAPK2 (P49137 whole entry): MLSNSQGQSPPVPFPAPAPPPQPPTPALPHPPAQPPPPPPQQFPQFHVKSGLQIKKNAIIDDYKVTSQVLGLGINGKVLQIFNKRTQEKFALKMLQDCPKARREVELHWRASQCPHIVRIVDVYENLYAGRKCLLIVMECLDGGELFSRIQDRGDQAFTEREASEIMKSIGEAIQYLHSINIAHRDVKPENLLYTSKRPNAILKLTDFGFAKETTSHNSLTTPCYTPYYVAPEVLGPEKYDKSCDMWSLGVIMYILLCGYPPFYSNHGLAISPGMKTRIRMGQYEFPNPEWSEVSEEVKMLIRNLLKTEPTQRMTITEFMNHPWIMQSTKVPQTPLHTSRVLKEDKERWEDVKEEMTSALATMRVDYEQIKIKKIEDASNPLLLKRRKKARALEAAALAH
From the text: as §1

WEE1 = WEE1 (Homo sapiens, UniProt P30291); settings: 1000 nM, read-out: Percent Control
From the text: as §1

ERK1 = ERK1 (Homo sapiens, UniProt P27361); settings: read-out: Percent Control
Sequence of ERK1 (P27361 whole entry): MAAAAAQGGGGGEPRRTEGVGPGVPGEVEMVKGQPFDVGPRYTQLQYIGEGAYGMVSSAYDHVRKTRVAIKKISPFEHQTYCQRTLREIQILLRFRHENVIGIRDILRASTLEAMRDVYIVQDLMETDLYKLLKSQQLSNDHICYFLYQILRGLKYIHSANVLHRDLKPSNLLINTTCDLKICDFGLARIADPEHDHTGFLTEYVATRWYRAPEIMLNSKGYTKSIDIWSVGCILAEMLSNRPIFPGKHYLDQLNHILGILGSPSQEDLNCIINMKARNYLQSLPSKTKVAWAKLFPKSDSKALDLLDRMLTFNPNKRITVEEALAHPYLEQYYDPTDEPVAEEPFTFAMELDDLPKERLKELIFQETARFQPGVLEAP
From the text: as §1

MYO3B = MYO3B (Homo sapiens, UniProt Q8WXR4); settings: 1000 nM, read-out: Percent Control
From the text: as §1

MAP3K3 = MAP3K3 (Homo sapiens, UniProt Q99759); settings: 1000 nM, read-out: Percent Control
From the text: as §1

SGK = SGK (Homo sapiens, UniProt O00141); settings: compound concentration 100 nM; Entrez SGK1; read-out: Percent Control
From the text: as §1

FRK = FRK (Homo sapiens, UniProt P42685); settings: 1000 nM, read-out: Percent Control
From the text: as §1

MAP4K4 = MAP4K4 (Homo sapiens, UniProt O95819); settings: 1000 nM, read-out: Percent Control
From the text: as §1

BMPR1A = BMPR1A (Homo sapiens, UniProt P36894); settings: 1000 nM, read-out: Percent Control
From the text: as §1

RAF1 = RAF1 (Homo sapiens, UniProt P04049); settings: compound concentration 100 nM; Entrez RAF1; read-out: Percent Control
From the text: as §1

BMPR2 = BMPR2 (Homo sapiens, UniProt Q13873); settings: read-out: Percent Control
Sequence of BMPR2 (Q13873 27-1038): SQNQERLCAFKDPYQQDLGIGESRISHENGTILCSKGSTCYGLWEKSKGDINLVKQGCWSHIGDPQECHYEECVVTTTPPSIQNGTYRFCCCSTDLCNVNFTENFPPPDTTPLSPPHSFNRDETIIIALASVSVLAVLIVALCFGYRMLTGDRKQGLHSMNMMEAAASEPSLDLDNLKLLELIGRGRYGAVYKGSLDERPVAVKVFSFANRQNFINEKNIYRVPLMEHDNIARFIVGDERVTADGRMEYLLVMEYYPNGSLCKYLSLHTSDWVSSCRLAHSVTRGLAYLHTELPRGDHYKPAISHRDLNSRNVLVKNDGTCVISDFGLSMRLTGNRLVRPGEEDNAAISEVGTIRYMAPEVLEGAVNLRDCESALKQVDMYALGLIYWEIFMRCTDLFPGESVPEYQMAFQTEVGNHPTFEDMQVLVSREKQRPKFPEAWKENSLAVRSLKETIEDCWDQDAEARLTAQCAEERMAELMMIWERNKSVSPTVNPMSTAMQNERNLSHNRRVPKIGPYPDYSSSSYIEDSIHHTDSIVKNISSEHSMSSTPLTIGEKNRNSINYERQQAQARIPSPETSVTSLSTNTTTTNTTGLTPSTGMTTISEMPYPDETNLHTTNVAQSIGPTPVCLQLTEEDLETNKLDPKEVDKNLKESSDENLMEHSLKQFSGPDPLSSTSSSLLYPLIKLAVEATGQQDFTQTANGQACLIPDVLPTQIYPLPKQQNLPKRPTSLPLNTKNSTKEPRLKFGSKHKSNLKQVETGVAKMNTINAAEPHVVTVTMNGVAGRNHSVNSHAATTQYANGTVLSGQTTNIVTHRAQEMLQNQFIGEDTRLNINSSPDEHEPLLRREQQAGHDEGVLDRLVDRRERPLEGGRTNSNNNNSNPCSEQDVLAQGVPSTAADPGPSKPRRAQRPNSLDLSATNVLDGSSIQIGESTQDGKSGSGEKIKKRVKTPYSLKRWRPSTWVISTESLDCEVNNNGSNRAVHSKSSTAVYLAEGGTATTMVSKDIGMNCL
From the text: as §1

GRK7 = GRK7 (Homo sapiens, UniProt Q8WTQ7); settings: 1000 nM, read-out: Percent Control
From the text: as §1

CSNK1G1 = CSNK1G1 (Homo sapiens, UniProt Q9HCP0); settings: 1000 nM, read-out: Percent Control
From the text: as §1

STK36 = STK36 (Homo sapiens, UniProt Q9NRP7); settings: 1000 nM, read-out: Percent Control
From the text: as §1

MKK7 = MKK7 (Homo sapiens, UniProt O14733); settings: read-out: Percent Control
Sequence of MKK7 (O14733 whole entry): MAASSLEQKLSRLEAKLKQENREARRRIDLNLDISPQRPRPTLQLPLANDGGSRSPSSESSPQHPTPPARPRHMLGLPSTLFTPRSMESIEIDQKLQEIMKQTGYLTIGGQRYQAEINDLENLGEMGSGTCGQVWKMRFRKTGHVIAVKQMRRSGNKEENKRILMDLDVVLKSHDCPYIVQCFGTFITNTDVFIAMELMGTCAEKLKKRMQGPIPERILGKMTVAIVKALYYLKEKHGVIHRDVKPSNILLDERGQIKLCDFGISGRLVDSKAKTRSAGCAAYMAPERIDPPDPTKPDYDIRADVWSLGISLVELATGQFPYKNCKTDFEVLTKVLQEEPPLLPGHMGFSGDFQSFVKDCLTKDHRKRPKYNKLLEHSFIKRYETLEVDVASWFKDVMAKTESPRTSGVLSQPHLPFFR
From the text: as §1

AXL = AXL (Homo sapiens, UniProt P30530); settings: read-out: Percent Control
Sequence of AXL (P30530 26-894): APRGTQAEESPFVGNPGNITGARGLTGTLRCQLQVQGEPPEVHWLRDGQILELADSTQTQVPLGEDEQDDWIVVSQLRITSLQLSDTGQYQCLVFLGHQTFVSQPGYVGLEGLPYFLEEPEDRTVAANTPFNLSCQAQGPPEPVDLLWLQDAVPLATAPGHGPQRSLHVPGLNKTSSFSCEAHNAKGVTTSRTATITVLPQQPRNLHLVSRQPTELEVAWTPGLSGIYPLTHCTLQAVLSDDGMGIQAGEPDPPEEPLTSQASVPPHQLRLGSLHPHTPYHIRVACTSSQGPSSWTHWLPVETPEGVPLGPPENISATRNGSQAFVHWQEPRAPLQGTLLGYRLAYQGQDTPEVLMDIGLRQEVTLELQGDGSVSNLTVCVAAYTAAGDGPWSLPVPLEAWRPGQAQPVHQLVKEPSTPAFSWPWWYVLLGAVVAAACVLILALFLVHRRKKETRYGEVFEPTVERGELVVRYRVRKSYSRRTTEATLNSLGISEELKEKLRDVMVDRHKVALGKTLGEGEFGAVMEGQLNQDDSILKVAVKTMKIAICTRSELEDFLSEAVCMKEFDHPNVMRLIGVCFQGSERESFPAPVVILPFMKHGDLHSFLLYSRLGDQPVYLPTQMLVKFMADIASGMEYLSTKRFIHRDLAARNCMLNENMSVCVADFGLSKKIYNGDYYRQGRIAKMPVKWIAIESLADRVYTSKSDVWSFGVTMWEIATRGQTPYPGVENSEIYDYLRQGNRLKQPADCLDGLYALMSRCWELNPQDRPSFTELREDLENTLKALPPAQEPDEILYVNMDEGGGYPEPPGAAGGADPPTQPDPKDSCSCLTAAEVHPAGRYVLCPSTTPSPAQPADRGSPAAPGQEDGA
From the text: as §1

ABL1-phosphorylated = ABL1-phosphorylated (Homo sapiens, UniProt P00519); settings: read-out: Percent Control
Sequence of ABL1-phosphorylated (P00519 whole entry): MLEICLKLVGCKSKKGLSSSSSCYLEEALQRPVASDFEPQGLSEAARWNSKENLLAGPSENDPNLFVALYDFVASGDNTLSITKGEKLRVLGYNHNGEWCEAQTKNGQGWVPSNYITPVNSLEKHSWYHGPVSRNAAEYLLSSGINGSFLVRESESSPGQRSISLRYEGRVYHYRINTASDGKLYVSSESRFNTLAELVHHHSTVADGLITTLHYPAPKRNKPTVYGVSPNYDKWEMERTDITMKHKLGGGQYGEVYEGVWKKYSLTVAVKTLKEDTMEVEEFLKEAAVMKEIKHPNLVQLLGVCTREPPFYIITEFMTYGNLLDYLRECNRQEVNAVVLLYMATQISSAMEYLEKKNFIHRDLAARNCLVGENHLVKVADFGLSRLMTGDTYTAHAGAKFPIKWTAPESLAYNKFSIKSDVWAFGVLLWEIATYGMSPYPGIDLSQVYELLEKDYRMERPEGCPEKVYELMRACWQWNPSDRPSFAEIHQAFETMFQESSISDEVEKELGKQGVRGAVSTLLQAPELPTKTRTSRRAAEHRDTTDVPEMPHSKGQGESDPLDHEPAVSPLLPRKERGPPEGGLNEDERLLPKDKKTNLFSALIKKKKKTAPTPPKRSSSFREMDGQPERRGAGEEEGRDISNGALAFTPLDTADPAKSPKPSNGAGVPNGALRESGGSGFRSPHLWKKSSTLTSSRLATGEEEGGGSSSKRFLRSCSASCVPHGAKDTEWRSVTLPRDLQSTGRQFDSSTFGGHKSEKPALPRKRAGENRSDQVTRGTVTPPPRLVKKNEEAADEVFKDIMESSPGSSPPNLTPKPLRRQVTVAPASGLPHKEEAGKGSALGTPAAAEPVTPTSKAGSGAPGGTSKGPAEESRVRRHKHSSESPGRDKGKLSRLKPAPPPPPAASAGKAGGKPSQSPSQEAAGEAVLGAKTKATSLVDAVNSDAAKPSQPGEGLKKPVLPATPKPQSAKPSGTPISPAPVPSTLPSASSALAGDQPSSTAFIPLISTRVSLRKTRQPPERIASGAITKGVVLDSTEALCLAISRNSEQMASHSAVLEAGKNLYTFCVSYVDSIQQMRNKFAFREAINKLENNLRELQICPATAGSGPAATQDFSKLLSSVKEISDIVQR
From the text: as §1

WNK1 = WNK1 (Homo sapiens, UniProt Q9H4A3); settings: compound concentration 100 nM; Entrez WNK1; read-out: Percent Control
From the text: as §1

ABL1-nonphosphorylated = ABL1-nonphosphorylated (Homo sapiens, UniProt P00519); settings: read-out: Percent Control
Sequence of ABL1-nonphosphorylated (P00519 whole entry): as above
From the text: as §1

MYLK4 = MYLK4 (Homo sapiens, UniProt Q86YV6); settings: compound concentration 100 nM; Entrez MYLK4; read-out: Percent Control
From the text: as §1

BUB1 = BUB1 (Homo sapiens, UniProt O43683); settings: 1000 nM, read-out: Percent Control
From the text: as §1

RIOK1 = RIOK1 (Homo sapiens, UniProt Q9BRS2); settings: 1000 nM, read-out: Percent Control
From the text: as §1

GRK3 = GRK3 (Homo sapiens, UniProt P35626); settings: 1000 nM, read-out: Percent Control
From the text: as §1

p38-alpha = p38-alpha (Homo sapiens, UniProt Q16539); settings: compound concentration 100 nM; Entrez MAPK14; read-out: Percent Control
From the text: as §1

DRAK1 = DRAK1 (Homo sapiens, UniProt Q9UEE5); settings: 1000 nM, read-out: Percent Control
From the text: as §1

ADCK4 = ADCK4 (Homo sapiens, UniProt Q96D53); settings: 1000 nM, read-out: Percent Control
From the text: as §1

MARK3 = MARK3 (Homo sapiens, UniProt P27448); settings: 1000 nM, read-out: Percent Control
From the text: as §1

NEK2 = NEK2 (Homo sapiens, UniProt P51955); settings: compound concentration 100 nM; Entrez NEK2; read-out: Percent Control
From the text: as §1

AKT2 = AKT2 (Homo sapiens, UniProt P31751); settings: read-out: Percent Control
Sequence of AKT2 (P31751 whole entry): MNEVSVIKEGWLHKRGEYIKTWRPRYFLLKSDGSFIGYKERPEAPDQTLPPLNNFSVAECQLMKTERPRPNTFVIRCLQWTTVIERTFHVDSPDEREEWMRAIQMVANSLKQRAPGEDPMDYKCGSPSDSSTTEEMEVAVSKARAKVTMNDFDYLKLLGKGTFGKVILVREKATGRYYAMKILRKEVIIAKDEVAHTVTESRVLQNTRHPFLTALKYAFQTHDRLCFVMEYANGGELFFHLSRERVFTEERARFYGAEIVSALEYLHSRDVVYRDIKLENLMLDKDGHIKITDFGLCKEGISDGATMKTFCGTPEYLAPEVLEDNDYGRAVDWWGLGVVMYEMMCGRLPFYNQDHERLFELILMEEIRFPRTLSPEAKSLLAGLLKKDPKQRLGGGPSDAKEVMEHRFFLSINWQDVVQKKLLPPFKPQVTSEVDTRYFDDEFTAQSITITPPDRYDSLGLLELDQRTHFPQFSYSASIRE
From the text: as §1

FLT4 = FLT4 (Homo sapiens, UniProt P35916); settings: 1000 nM, read-out: Percent Control
From the text: as §1

RIOK3 = RIOK3 (Homo sapiens, UniProt O14730); settings: 1000 nM, read-out: Percent Control
From the text: as §1

SRPK2 = SRPK2 (Homo sapiens, UniProt P78362); settings: compound concentration 100 nM; Entrez SRPK2; read-out: Percent Control
From the text: as §1

YANK2 = YANK2 (Homo sapiens, UniProt Q9NY57); settings: compound concentration 100 nM; Entrez STK32B; read-out: Percent Control
From the text: as §1

CDC2L1 = CDC2L1 (Homo sapiens, UniProt P21127); settings: 1000 nM, read-out: Percent Control
From the text: as §1

[2] = compound concentration 100 nM, Entrez ABL1

`CN1C(=O)[C@@H](N2CCc3c(nn(Cc4ccccc4)c3C(N)=O)C2=O)COc2cc(Cl)ccc21` [Compound 10, (S)-2-benzyl-6-(8-chloro-5-methyl-4-oxo-2,3,4,5-tetrahydrobenzo[b][1,4]oxazepin-3-yl)-7-oxo-4,5,6,7-tetrahydro-2H-pyrazolo[3,4-c]pyridine-3-carboxamide] was tested, and the remaining binding at 1 µM (CDK8) was 92%, the remaining binding at 0.1 µM [1] was 100% and the remaining binding at 1 µM (MAPKAPK2) was 64%. For the same compound, the remaining binding at 1 µM (WEE1) was 95%, the remaining binding at 1 µM (ERK1; 1000 nM) was 100% and the remaining binding at 0.1 µM (ERK1; compound concentration 100 nM, Entrez MAPK3) was 93%. For the same compound, the remaining binding at 1 µM (MYO3B) was 96%, the remaining binding at 1 µM (MAP3K3) was 94% and the remaining binding at 0.1 µM (SGK) was 98%. It also gave a remaining binding at 1 µM (FRK) of 81%, a remaining binding at 1 µM (MAP4K4) of 94% and a remaining binding at 1 µM (BMPR1A) of 80%. It also gave a remaining binding at 0.1 µM (RAF1) of 100%, a remaining binding at 1 µM (BMPR2; 1000 nM) of 100% and a remaining binding at 0.1 µM (BMPR2; compound concentration 100 nM, Entrez BMPR2) of 90%. It also gave a remaining binding at 1 µM (GRK7) of 98%, a remaining binding at 1 µM (CSNK1G1) of 91% and a remaining binding at 1 µM (STK36) of 80%. The remaining binding at 1 µM (MKK7; 1000 nM) was 99%, the remaining binding at 0.1 µM (MKK7; compound concentration 100 nM, Entrez MAP2K7) was 91% and the remaining binding at 1 µM (AXL; 1000 nM) was 100%. For the same compound, the remaining binding at 0.1 µM (AXL; compound concentration 100 nM, Entrez AXL) was 95%, the remaining binding at 1 µM (ABL1-phosphorylated; 1000 nM) was 100% and the remaining binding at 0.1 µM (ABL1-phosphorylated; [2]) was 97%. For the same compound, the remaining binding at 0.1 µM (WNK1) was 92%, the remaining binding at 1 µM (ABL1-nonphosphorylated; 1000 nM) was 100% and the remaining binding at 0.1 µM (ABL1-nonphosphorylated; [2]) was 100%. The remaining binding at 0.1 µM (MYLK4) was 92%, the remaining binding at 1 µM (BUB1) was 78% and the remaining binding at 1 µM (RIOK1) was 85%. It also gave a remaining binding at 1 µM (GRK3) of 71%, a remaining binding at 0.1 µM (p38-alpha) of 100% and a remaining binding at 1 µM (DRAK1) of 91%. It also gave a remaining binding at 1 µM (ADCK4) of 80%, a remaining binding at 1 µM (MARK3) of 98% and a remaining binding at 0.1 µM (NEK2) of 82%. The remaining binding at 1 µM (AKT2; 1000 nM) was 100%, the remaining binding at 0.1 µM (AKT2; compound concentration 100 nM, Entrez AKT2) was 90% and the remaining binding at 1 µM (FLT4) was 92%. The remaining binding at 1 µM (RIOK3) was 77%, the remaining binding at 0.1 µM (SRPK2) was 100% and the remaining binding at 0.1 µM (YANK2) was 99%. The remaining binding at 1 µM (CDC2L1) was 83%.
